melting point [°C]	SMILES
55 to 56	CCCCN(Sc1nc2ccccc2s1)C(C)(C)C [N-n-butyl-N-t-butylbenzothiazole-2-sulfenamide]
56 to 58	CN(Sc1nc2ccccc2s1)C(C)(C)C [N-methyl-N-t-butylbenzothiazole-2-sulfenamide]
60 to 61	CCN(Sc1nc2ccccc2s1)C(C)(C)C [N-ethyl-N-t-butylbenzothiazole-2-sulfenamide]

From US20110124787A1, “RUBBER COMPOSITION” (BRIDGESTONE CORPORATION, priority 2008, published 2011)
